We go through 34 compounds from the Kinase Knowledgebase extract (Sharma et al. 2016).

For test [1], the target named is PIK3CB (Human) (UniProt P42338). The experiment in a line: Cell-Based Assay. The conditions noted are these: mda-468.
The target in test [2] is EGFR (human) (UniProt P00533).
A further test deals with EGFR (mouse) (UniProt P00533).
For test [3], the target named is PIK3CA (human) (UniProt P42336). In words: Enzyme Assay.
Test [4] deals with PIK3CB (Human) (UniProt P42338). The experiment in a line: Enzyme Assay.
In another test the target is MAPK14 (UniProt Q16539). In words: Enzyme Assay.
Chain of MAPK14 (Q16539 whole entry, looked up): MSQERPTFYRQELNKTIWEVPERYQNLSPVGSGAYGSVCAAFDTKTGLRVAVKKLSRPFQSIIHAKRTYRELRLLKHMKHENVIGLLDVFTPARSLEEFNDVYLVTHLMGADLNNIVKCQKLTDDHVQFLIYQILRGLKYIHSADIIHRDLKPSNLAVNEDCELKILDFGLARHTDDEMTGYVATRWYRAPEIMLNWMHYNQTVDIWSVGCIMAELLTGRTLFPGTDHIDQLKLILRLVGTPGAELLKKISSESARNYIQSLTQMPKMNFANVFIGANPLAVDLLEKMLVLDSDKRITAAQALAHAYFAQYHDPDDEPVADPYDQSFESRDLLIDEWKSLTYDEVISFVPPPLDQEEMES
Test [5] deals with EGFR (human) (UniProt P00533). The conditions noted are these: a431.
A further test addresses CDK2 (human) (UniProt P24941). The experiment in a line: Enzyme Assay.
The target in another test is PIK3CG;PIK3CA (human) (UniProt P48736). In words: Antiproliferation of PC3-MM2 Cells. The note with it: pc-3.
Chain of PIK3CG;PIK3CA (human) (P48736 whole entry, looked up): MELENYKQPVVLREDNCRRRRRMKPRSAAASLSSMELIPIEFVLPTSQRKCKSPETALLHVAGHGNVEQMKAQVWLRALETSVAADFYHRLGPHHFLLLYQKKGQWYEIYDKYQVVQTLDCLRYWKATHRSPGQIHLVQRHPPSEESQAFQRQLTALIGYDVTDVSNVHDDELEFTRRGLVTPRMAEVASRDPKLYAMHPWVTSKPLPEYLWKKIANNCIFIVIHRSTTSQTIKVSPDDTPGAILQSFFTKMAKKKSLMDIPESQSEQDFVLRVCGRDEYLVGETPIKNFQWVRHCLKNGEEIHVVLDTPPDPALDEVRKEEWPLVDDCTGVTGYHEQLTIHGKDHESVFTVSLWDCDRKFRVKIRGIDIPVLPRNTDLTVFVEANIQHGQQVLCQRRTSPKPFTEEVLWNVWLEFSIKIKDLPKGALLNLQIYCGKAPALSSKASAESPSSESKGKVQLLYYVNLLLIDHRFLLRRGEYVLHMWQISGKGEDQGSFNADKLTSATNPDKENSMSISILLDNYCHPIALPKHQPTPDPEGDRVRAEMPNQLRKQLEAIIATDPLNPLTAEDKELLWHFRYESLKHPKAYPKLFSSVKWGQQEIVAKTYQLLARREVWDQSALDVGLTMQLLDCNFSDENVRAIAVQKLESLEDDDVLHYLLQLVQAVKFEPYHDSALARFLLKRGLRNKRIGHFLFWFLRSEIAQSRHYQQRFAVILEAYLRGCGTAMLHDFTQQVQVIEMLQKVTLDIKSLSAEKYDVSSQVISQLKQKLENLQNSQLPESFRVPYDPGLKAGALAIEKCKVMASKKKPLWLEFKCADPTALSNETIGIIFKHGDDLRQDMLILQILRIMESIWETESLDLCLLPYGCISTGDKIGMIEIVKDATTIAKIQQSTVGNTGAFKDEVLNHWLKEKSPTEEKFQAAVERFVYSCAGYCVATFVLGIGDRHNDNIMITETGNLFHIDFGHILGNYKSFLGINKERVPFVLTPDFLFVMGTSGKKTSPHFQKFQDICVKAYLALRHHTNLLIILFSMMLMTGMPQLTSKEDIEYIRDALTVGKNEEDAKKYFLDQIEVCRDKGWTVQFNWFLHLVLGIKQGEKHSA
Test [6] has as its target EGFR (human) (UniProt P00533). The source holds these as a separate data set.
Test [7] deals with PIK3CD (Human) (UniProt O00329). In words: Enzyme Assay.
The target in test [8] is PIK3CA (human) (UniProt P42336). In words: Inhibition of PIK3CA Kinase Activity.
Test [9] has as its target PIK3CG (human) (UniProt P48736). In words: Inhibition of PIK3CG Kinase Activity.
In test [10] the target is PIK3CD (Human) (UniProt O00329). In words: Inhibition of PIK3CD Kinase Activity.
The target of test [11] is PIK3CB (Human) (UniProt P42338). The experiment in a line: Inhibition of PIK3CB Kinase Activity.
Test [12] deals with PIK3CG (human) (UniProt P48736). In words: Enzyme Assay.
Chain of PIK3CG (human) (P48736 whole entry, looked up): as above

Chain of EGFR (human) (P00533 whole entry, looked up): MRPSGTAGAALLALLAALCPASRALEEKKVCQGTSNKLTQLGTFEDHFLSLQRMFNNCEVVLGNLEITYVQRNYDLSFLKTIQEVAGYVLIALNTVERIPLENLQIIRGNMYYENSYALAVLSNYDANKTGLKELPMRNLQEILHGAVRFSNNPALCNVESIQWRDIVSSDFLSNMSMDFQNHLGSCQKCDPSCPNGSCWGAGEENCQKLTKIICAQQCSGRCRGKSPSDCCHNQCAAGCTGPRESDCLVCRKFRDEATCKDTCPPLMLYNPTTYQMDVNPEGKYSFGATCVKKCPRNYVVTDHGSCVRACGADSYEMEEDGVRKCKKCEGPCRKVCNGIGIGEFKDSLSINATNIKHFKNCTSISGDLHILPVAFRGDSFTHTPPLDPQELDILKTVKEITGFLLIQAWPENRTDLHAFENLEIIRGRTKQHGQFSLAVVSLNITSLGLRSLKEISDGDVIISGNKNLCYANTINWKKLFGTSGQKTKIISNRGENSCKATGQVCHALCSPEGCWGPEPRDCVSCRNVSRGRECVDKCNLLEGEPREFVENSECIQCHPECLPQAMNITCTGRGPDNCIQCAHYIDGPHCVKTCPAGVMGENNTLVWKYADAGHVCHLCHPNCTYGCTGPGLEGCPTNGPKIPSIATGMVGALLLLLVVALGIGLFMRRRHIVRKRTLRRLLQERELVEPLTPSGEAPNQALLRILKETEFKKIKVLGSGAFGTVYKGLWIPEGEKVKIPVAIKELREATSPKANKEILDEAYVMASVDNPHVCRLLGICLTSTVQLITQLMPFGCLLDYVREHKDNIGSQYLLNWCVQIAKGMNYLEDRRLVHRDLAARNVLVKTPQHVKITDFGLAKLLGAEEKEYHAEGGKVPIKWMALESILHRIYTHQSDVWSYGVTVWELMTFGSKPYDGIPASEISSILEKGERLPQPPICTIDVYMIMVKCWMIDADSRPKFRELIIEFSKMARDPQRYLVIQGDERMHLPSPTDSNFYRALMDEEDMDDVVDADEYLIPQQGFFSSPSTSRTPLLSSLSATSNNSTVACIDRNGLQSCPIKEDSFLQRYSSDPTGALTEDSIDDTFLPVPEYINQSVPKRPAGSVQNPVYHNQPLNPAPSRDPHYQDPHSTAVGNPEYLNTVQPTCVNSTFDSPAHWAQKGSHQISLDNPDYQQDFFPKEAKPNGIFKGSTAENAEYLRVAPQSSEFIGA
Chain of PIK3CB (Human) (P42338 whole entry, looked up): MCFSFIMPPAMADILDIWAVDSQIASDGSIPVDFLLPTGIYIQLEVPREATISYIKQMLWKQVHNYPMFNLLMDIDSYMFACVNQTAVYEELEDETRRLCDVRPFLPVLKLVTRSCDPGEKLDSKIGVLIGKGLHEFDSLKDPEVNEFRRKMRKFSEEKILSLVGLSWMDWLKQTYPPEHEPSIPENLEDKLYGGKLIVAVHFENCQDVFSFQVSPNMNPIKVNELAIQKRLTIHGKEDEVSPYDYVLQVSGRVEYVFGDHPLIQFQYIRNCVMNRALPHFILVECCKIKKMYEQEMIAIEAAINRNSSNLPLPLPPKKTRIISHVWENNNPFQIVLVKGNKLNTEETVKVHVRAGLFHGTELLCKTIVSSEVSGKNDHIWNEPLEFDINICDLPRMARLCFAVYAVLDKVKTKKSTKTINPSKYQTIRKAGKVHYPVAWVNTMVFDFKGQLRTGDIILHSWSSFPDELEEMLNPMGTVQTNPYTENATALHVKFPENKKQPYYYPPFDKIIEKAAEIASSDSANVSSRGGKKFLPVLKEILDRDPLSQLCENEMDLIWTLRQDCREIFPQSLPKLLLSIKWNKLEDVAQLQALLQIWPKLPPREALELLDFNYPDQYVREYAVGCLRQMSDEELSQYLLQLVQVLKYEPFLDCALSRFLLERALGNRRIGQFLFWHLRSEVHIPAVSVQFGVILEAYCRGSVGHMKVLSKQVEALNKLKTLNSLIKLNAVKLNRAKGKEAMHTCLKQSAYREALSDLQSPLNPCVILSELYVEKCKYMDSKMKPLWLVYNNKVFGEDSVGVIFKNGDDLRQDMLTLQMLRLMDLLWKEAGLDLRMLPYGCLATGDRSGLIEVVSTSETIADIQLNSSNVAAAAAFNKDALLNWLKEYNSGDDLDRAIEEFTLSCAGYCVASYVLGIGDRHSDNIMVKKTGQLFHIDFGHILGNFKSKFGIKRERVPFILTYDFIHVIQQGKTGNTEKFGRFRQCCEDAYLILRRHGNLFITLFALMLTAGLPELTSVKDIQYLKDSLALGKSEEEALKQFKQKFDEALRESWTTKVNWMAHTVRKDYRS
Chain of PIK3CA (human) (P42336 whole entry, looked up): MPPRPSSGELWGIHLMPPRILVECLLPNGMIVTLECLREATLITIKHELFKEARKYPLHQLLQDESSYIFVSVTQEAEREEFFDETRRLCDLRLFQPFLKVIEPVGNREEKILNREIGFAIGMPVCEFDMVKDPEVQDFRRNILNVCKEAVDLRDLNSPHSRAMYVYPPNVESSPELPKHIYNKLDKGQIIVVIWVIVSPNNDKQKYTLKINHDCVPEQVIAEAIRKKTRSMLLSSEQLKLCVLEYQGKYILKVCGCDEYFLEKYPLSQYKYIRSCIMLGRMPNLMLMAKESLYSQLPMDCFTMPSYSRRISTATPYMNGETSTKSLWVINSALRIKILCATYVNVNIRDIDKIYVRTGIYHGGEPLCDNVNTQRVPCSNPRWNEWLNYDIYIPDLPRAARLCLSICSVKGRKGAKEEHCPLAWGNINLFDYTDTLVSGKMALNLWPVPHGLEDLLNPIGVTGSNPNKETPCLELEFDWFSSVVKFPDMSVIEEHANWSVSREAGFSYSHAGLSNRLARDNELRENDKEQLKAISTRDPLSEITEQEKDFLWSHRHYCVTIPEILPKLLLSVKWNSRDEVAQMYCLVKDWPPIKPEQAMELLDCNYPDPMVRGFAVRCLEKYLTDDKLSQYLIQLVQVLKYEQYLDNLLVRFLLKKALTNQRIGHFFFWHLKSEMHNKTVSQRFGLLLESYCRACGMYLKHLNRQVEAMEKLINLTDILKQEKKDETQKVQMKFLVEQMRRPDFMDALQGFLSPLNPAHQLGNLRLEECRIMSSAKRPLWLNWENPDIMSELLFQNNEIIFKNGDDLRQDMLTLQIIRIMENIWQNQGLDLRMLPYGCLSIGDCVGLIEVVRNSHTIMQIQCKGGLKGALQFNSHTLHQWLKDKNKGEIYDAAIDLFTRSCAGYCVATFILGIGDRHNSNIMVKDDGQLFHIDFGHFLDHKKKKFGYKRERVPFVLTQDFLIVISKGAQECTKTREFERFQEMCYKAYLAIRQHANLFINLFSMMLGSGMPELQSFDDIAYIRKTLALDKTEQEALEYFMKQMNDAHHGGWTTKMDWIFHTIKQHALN

At PIK3CB (Human) [1], `C[C@H](Nc1ncnc(N)c1C#N)c1cc2cccc(F)c2nc1-c1ccccc1S(C)(=O)=O` had an IC50 of 5.97 µM.

For `CCNc1nc(-c2cccc(O)c2)c(-c2ccnc(Nc3ccc(OCCN4CCCC4)c(Cl)c3)n2)s1`, the concentration for half-maximal inhibition (IC50) against EGFR (human) [2] is less than 100 nM.

Regarding `CCCCCCCCCCCC(=O)O[C@@H]1[C@@H](C)[C@@]2(O)[C@@H](C=C(CO)C[C@]3(O)C(=O)C(C)=C[C@@H]23)[C@@H]2C(C)(C)[C@]12OC(C)=O`, at EGFR (mouse), the ID50 was 1.33 nM.

With `C[C@@H](Oc1ccccc1)c1cc(C(=O)N(C)CCO)cn2c(=O)cc(N3CCOCC3)nc12`, the IC50 was 3.5 µM against PIK3CA (human) [3] and 100 nM at PIK3CB (Human) [4].

As for `CC(C)S(=O)(=O)n1c(N)nc2ccc(-c3[nH]c(-c4c(F)cccc4F)nc3-c3ccccc3)cc21`, at MAPK14, the Ki was determined as 5 nM.

In the case of `C=CC(=O)N1CC[C@H]1C(=O)Nc1ccc2ncnc(Nc3ccc(OCc4ccccn4)c(Cl)c3)c2c1`, on EGFR (human) [5], the IC50 is 218 nM.

For `CC[C@H](Nc1nc(NCc2cccc(Cl)c2)c2ncn(C(C)C)c2n1)[C@@H](C)O`, the IC50 at CDK2 (human) amounted to 100 nM.

At EGFR (mouse), `CC(C)[C@H]1C(=O)N[C@H](CO)Cc2c[nH]c3cccc(c23)N1C` had an ID50 of 1110 nM.

Compound `COc1ccc2c(c1)c(/C=C1\Oc3cc(O)cc(O)c3C1=O)c1n2CCN(C)C1` returned a 50% inhibitory concentration (IC50) with PIK3CG;PIK3CA (human) of 1610 nM.

`FC(F)(F)c1cccc(Nc2ncnc3sc4c(c23)CCCC4)c1` yielded an IC50 against EGFR (human) [6] of 35.5 nM.

Turning to `C[C@H](Nc1ncnc(N)c1C#N)c1cc2ccc(F)cc2nc1-c1ccccc1S(C)(=O)=O`, the IC50 against PIK3CB (Human) [1] was more than 10 µM.

`COc1ccc2c(c1)c(/C=C1\Oc3cc(O)cc(O)c3C1=O)c1n2CCOC1`: in the test with PIK3CG;PIK3CA (human), the 50% inhibitory concentration (IC50) is 1910 nM.

At EGFR (human) [5], `C=CC(=O)N1CCC(C(=O)Nc2ccc3ncnc(Nc4ccc(OCc5ccccn5)c(Cl)c4)c3c2)CC1` had an IC50 of 513 nM.

With `CCCCC[C@@H](Cc1ccc2c3c(c[nH]c13)C[C@@H](CO)NC(=O)[C@H](C(C)C)N2C)NC(=O)c1ccc(N=[N+]=[N-])cc1`, the ID50 on EGFR (mouse) is 71 nM.

At PIK3CB (Human) [1], `C[C@H](Nc1ncnc(N)c1C#N)c1nc2ccc(F)cc2nc1-c1ccccn1` yielded a half-inhibitory concentration (IC50) of more than 10 µM.

As for `c1ccc(Nc2ncnc3sc4c(c23)CCCC4)cc1`, the IC50 at EGFR (human) [6] stood at 10.5 nM.

As to `CC[C@H](Nc1ncnc(N)c1-c1nnc(C)o1)c1cc2cccc(Cl)c2c(=O)n1-c1ccccc1`, the IC50 against PIK3CB (Human) [4] was 359 nM.

Turning to `O=C(c1nn([C@@H]2CCCN(CCN3CCOCC3)C2)c2c1CS(=O)(=O)c1c(F)cccc1-2)N1CCOCC1`, the figures for the IC50 on PIK3CA (human) [3], against PIK3CB (Human) [4] and against PIK3CD (Human) [7] were 7.65 µM, 2450 nM and 15 nM, respectively.

`O=c1cc(NCc2ccccc2)nc(N2CCOCC2)[nH]1`: the IC50 at PIK3CA (human) [3] was 142 µM; against PIK3CB (Human) [4], 34000 nM.

As for `CC1(C)CNC(=O)c2sc(N3CCOC[C@@H]3Cc3c[nH]c4ncccc34)nc2C1`, the IC50 against PIK3CA (human) [8] amounted to 59 nM; against PIK3CG (human) [9] it was 31 nM; on PIK3CD (Human) [10], 18 nM; at PIK3CB (Human) [11], 1010 nM.

On MAPK14, `Cc1cccc(C(=O)c2ccc(Nc3ccc(N)cc3)cc2Cl)c1` came in with an IC50 of 190 nM.

On to `C=C[C@@]1(C)CC[C@](C)(C(C)C)c2cc3c4c(c[nH]c4c21)C[C@@H](CO)NC(=O)[C@H](C(C)C)N3C`, for which, on EGFR (mouse), the ID50 is 2.23 nM.

`CCNc1nc(-c2cccc(OC)c2)c(-c2ccnc(Nc3ccc(OC4CCN(CCS(C)(=O)=O)CC4)c(F)c3)n2)s1`: the half-maximal inhibitory concentration (IC50) at EGFR (human) [2] fell in the range of 100 to 1000 nM.

As to `Oc1ccc(Nc2ncnc3sc4c(c23)CCCC4)cc1`, at EGFR (human) [6], the IC50 was determined as 27.4 nM.

`Cc1nc(N)nc2c1cc(-c1ccc(N)nc1)c(=O)n2[C@@H]1CCOC1`: the half-maximal inhibitory concentration (IC50) at PIK3CA (human) [8] is less than 9.1 nM; on PIK3CB (Human) [11], 34 nM.

With `COc1ccc2c(c1)c(/C=C1\Oc3cc(O)ccc3C1=O)c1n2CCC1`, the half-maximal inhibitory concentration (IC50) with PIK3CG;PIK3CA (human) turned out to be 3400 nM.

`C=CC(=O)N1CCCC[C@H]1C(=O)Nc1ccc2ncnc(Nc3ccc(OCc4ccccn4)c(Cl)c3)c2c1` yielded a 50% inhibitory concentration (IC50) against EGFR (human) [5] of 105 nM.

Take `COCCNc1nc(-c2cccc(OC)c2)c(-c2ccnc(Nc3ccc(N4CCOCC4)c(Cl)c3)n2)s1`: the 50% inhibitory concentration (IC50) against EGFR (human) [2] is less than 100 nM.

Regarding `C=CCN(/C=C1/C(=O)O[C@H](COC)[C@@]2(C)C1=C(O)C(=O)C1=C2[C@H](OC(C)=O)C[C@]2(C)C(O)CC[C@H]12)CC=C` (stereo partly drawn), the IC50 against PIK3CA (human) [8] is 14 nM; against PIK3CG (human) [9], 148 nM; against PIK3CD (Human) [10] it was 131 nM; at PIK3CB (Human) [11], 57 nM.

In the case of `C=CC(=O)N1CCC[C@H]1C(=O)Nc1ccc2ncnc(Nc3ccc(OCc4ccccn4)c(Cl)c3)c2c1`, the IC50 on EGFR (human) [5] amounted to 32 nM.

As for `CCN1CCN(c2cccc3c2CCN3C(=O)Cc2nc(N3CCOCC3)cc(=O)[nH]2)CC1`, the 50% inhibitory concentration (IC50) is 0.66 µM on PIK3CA (human) [3], 332 nM on PIK3CB (Human) [4], 2 nM at PIK3CD (Human) [7] and 10 µM against PIK3CG (human) [12].

`CC[C@H](Nc1nc(NCc2cccc(F)c2)c2ncn(C(C)C)c2n1)[C@@H](C)O` came in with a half-maximal inhibitory concentration (IC50) on CDK2 (human) of 120 nM.

`C[C@H](Nc1ncnc(N)c1C#N)c1cc2ccc(F)cc2nc1-c1ccccn1` came in with a half-inhibitory concentration (IC50) against PIK3CB (Human) [1] of 1.95 µM.

Compound `CCNc1nc(-c2cccc(OC)c2)c(-c2ccnc(Nc3ccc(OCCN(C)C)c(C)c3)n2)s1` registered a half-inhibitory concentration (IC50) at EGFR (human) [2] of less than 100 nM.

For orientation: IC50 means the concentration needed to halve the response being measured. The low end stands for greater potency, the high end for weaker potency. The term Ki denotes a dissociation constant, usually derived from enzyme kinetics or from competition with a known ligand. A higher Ki goes with lower affinity.
